Test system: Wistar (Crl:WI(Han)) rats
Assay: Mass spectrometry-based plasma metabolite profiling of rats treated with known inducers of thyroid function impairment
Type: in vivo, rat
Conditions: ratio of group medians vs controls
Method in brief: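 Rats aged 10-11 weeks, 5/sex/dose vs 10/sex controls, dosed at low and high levels; retro-orbital plasma taken under isoflurane on days 7, 14 and 28 after 16-20 h fast. Polar and non-polar fractions profiled by GC-MS (derivatised) and LC-MS/MS (MRM plus full scan), normalised to pool samples; Welch t-test by sex and day gives p-values and median ratios.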

[1] = female rats, fh7 (study day 7), Table 3
[2] = female rats, fh14 (study day 14), Table 3
[3] = female rats, fh28 (study day 28), Table 3
[4] = male rats, mh7 (study day 7), Table 4
[5] = male rats, mh14 (study day 14), Table 4
[6] = male rats, mh28 (study day 28), Table 4

CCC(CC)Nc1c([N+](=O)[O-])cc(C)c(C)c1[N+](=O)[O-] [Pendimethalin]
Arachidonic acid (C20:cis[58,11,14]4) [1]: 2.07
Behenic acid (C22:0) [1]: 2.05
Cholesterol [1]: 2.09
Cysteine [1]: 0.52
Docosahexaenoic acid (C22:cis[4,7,10,13,16,19]6) [1]: 1.85
Dodecanol [1]: 1.24
Eicosanoic acid (C20:0) [1]: 1.52
Glycerol phosphate [1]: 1.91
Heptadecanoic acid (C17:0) [1]: 1.35
Linoleic acid (C18:cis[9,12]2) [1]: 1.38
Nervonic acid C24:(cis[15]1) [1]: 3.51
Palmitic acid (C16:0) [1]: 1.49
Sphingomyelin (d18:1, C16:0) [1]: 2.01
Stearic acid (C18:0) [1]: 1.86
Threonic acid [1]: 1.85
dihomo-gamma-Linolenic acid (C20:cis[8,11,14]3) [1]: 1.77
erythro-Sphingosine [1]: 3.26
gamma-Linolenic acid (C18:cis[6,9,12]3) [1]: 1.61
myo-Inositol-2-phosphate [1]: 2.82
threo-Sphingosine [1]: 2.95
Arachidonic acid (C20:cis[58,11,14]4) [2]: 2.24
Behenic acid (C22:0) [2]: 1.89
Cholesterol [2]: 2.17
Cysteine [2]: 0.56
Docosahexaenoic acid (C22:cis[4,7,10,13,16,19]6) [2]: 1.82
Dodecanol [2]: 1.31
Eicosanoic acid (C20:0) [2]: 1.82
Glycerol phosphate [2]: 1.93
Heptadecanoic acid (C17:0) [2]: 1.56
Linoleic acid (C18:cis[9,12]2) [2]: 1.63
Nervonic acid C24:(cis[15]1) [2]: 2.62
Palmitic acid (C16:0) [2]: 1.81
Sphingomyelin (d18:1, C16:0) [2]: 1.64
Stearic acid (C18:0) [2]: 1.97
Threonic acid [2]: 1.79
dihomo-gamma-Linolenic acid (C20:cis[8,11,14]3) [2]: 3.05
erythro-Sphingosine [2]: 2.60
gamma-Linolenic acid (C18:cis[6,9,12]3) [2]: 2.29
myo-Inositol-2-phosphate [2]: 2.74
threo-Sphingosine [2]: 2.67
Arachidonic acid (C20:cis[58,11,14]4) [3]: 2.31
Behenic acid (C22:0) [3]: 1.94
Cholesterol [3]: 2.44
Cysteine [3]: 0.95
Docosahexaenoic acid (C22:cis[4,7,10,13,16,19]6) [3]: 1.85
Dodecanol [3]: 1.31
Eicosanoic acid (C20:0) [3]: 1.61
Glycerol phosphate [3]: 2.06
Heptadecanoic acid (C17:0) [3]: 1.63
Linoleic acid (C18:cis[9,12]2) [3]: 1.36
Nervonic acid C24:(cis[15]1) [3]: 2.54
Palmitic acid (C16:0) [3]: 1.67
Sphingomyelin (d18:1, C16:0) [3]: 1.58
Stearic acid (C18:0) [3]: 2.12
Threonic acid [3]: 2.05
dihomo-gamma-Linolenic acid (C20:cis[8,11,14]3) [3]: 2.43
erythro-Sphingosine [3]: 2.81
gamma-Linolenic acid (C18:cis[6,9,12]3) [3]: 2.57
myo-Inositol-2-phosphate [3]: 2.66
threo-Sphingosine [3]: 2.49
Behenic acid (C22:0) [4]: 1.94
Cholesterol [4]: 1.67
Citrate [4]: 0.86
Cytosine [4]: 0.79
Galactose, lipid fraction [4]: 1.81
Glycerol phosphate [4]: 2.06
Glycine [4]: 1.11
Lignoceric acid (C24:0) [4]: 2.32
Mannose [4]: 1.31
Nervonic acid C24:(cis[15]1) [4]: 2.90
Phospha-tidylcholine (C18:0, 18:2) [4]: 1.26
Sphingomyelin (d18:1, C16:0) [4]: 2.10
Stearic acid (C18:0) [4]: 1.64
Threonic acid [4]: 1.39
dihomo-gamma-Linolenic acis (C20:cis[8,11,14]3) [4]: 2.92
erythro-Sphingosine [4]: 2.78
myo-Inositol-2-phosphate [4]: 3.25
threo-Sphingosine [4]: 2.96
Behenic acid (C22:0) [5]: 1.90
Cholesterol [5]: 2.03
Citrate [5]: 0.83
Cytosine [5]: 0.92
Galactose, lipid fraction [5]: 2.03
Glycerol phosphate [5]: 2.38
Glycine [5]: 1.15
Lignoceric acid (C24:0) [5]: 2.93
Mannose [5]: 1.39
Nervonic acid C24:(cis[15]1) [5]: 2.99
Phospha-tidylcholine (C18:0, 18:2) [5]: 1.25
Sphingomyelin (d18:1, C16:0) [5]: 1.97
Stearic acid (C18:0) [5]: 2.28
Threonic acid [5]: 1.47
dihomo-gamma-Linolenic acis (C20:cis[8,11,14]3) [5]: 3.53
erythro-Sphingosine [5]: 3.33
myo-Inositol-2-phosphate [5]: 3.57
threo-Sphingosine [5]: 3.52
Behenic acid (C22:0) [6]: 1.79
Cholesterol [6]: 2.29
Citrate [6]: 0.87
Cytosine [6]: 0.81
Galactose, lipid fraction [6]: 2.23
Glycerol phosphate [6]: 2.34
Glycine [6]: 1.32
Lignoceric acid (C24:0) [6]: 2.42
Mannose [6]: 1.40
Nervonic acid C24:(cis[15]1) [6]: 3.07
Phospha-tidylcholine (C18:0, 18:2) [6]: 1.32
Sphingomyelin (d18:1, C16:0) [6]: 2.03
Stearic acid (C18:0) [6]: 2.12
Threonic acid [6]: 1.85
dihomo-gamma-Linolenic acis (C20:cis[8,11,14]3) [6]: 2.76
erythro-Sphingosine [6]: 2.69
myo-Inositol-2-phosphate [6]: 2.79
threo-Sphingosine [6]: 2.73

CCC1(c2ccccc2)C(=O)NC(=O)NC1=O [Phenobarbital sodium]
Behenic acid (C22:0) [4]: 1.03
Cholesterol [4]: 1.16
Citrate [4]: 0.89
Cytosine [4]: 1.06
Galactose, lipid fraction [4]: 1.12
Glycerol phosphate [4]: 1.05
Glycine [4]: 0.95
Lignoceric acid (C24:0) [4]: 1.21
Mannose [4]: 1.08
Nervonic acid C24:(cis[15]1) [4]: 1.27
Phospha-tidylcholine (C18:0, 18:2) [4]: 1.13
Sphingomyelin (d18:1, C16:0) [4]: 1.30
Stearic acid (C18:0) [4]: 0.99
Threonic acid [4]: 1.86
dihomo-gamma-Linolenic acis (C20:cis[8,11,14]3) [4]: 1.06
erythro-Sphingosine [4]: 1.39
myo-Inositol-2-phosphate [4]: 1.26
threo-Sphingosine [4]: 1.39
Behenic acid (C22:0) [5]: 1.11
Cholesterol [5]: 1.09
Citrate [5]: 0.93
Cytosine [5]: 1.07
Galactose, lipid fraction [5]: 1.18
Glycerol phosphate [5]: 1.04
Glycine [5]: 1.18
Lignoceric acid (C24:0) [5]: 1.18
Mannose [5]: 1.05
Nervonic acid C24:(cis[15]1) [5]: 1.77
Phospha-tidylcholine (C18:0, 18:2) [5]: 1.14
Sphingomyelin (d18:1, C16:0) [5]: 1.55
Stearic acid (C18:0) [5]: 1.19
Threonic acid [5]: 1.95
dihomo-gamma-Linolenic acis (C20:cis[8,11,14]3) [5]: 1.03
erythro-Sphingosine [5]: 1.56
myo-Inositol-2-phosphate [5]: 1.16
threo-Sphingosine [5]: 1.61
Behenic acid (C22:0) [6]: 1.21
Cholesterol [6]: 1.18
Citrate [6]: 0.96
Cytosine [6]: 0.98
Galactose, lipid fraction [6]: 1.06
Glycerol phosphate [6]: 1.05
Glycine [6]: 1.12
Lignoceric acid (C24:0) [6]: 1.25
Mannose [6]: 1.09
Nervonic acid C24:(cis[15]1) [6]: 1.65
Phospha-tidylcholine (C18:0, 18:2) [6]: 1.05
Sphingomyelin (d18:1, C16:0) [6]: 1.44
Stearic acid (C18:0) [6]: 1.09
Threonic acid [6]: 1.88
dihomo-gamma-Linolenic acis (C20:cis[8,11,14]3) [6]: 0.96
erythro-Sphingosine [6]: 1.65
myo-Inositol-2-phosphate [6]: 1.15
threo-Sphingosine [6]: 1.50

Source: patent publication US20120132797A1, “MEANS AND METHODS FOR DIAGNOSING THYROID DISORDERS” (BASF SE, priority 2009, published 2012)
